Measured values reported in US20250326753A1, “DUAL CXCR4-BTK INHIBITORS” (X4 Pharmaceuticals, Inc., priority 2022, published 2025).
Read-outs that look alike come from different tables or passages of the source.

Legend:
Format in all cases: biochemical
ERBB4 = biological target: T1, ERBB4 (Homo sapiens, UniProt Q15303); assay: PanQinase kinase panel: ERBB4; conditions: read-out: INHIBITORY EFFECT @ 1 uM: ERBB4
T1 construct: purchased Reaction Biology Europe GmbH
Experimental: (§1) Screening procedures were performed in accordance with the company's on-line protocol [accessed on-line Mar.
(§2) For each kinase, the median value of the cpm of three wells was defined as “low control” (n=3). This value reflects unspecific binding of radioactivity to the plate in the absence of a protein kinase but in the presence of the substrate. Additionally, for each kinase the median value of the cpm of three other wells was taken as the “high control,” i.e. full activity in the absence of any inhibitor (n=3). The difference between high and low control of each enzyme was taken as 100% activity.
As part of the data evaluation the low control of each kinase was subtracted from the high control value as well as from their corresponding “compound values”.

FRK = biological target: T2, FRK (Homo sapiens, UniProt P42685); assay: PanQinase kinase panel: FRK; conditions: read-out: INHIBITORY EFFECT @ 1 uM: FRK
T2 construct: purchased Reaction Biology Europe GmbH
Experimental: as §1, §2
(§3) As part of the data evaluation the low control of each kinase was subtracted from the high control value as well as from their corresponding “compound values”. The residual activity (in %) for each compound well was calculated by using the following formula: Res. Activity (%)=100×[(signal of compound−low control)/(high control−low control)].

RET = biological target: T3, RET (Homo sapiens, UniProt P07949); assay: PanQinase kinase panel: RET; conditions: read-out: INHIBITORY EFFECT @ 1 uM: RET
T3 construct: purchased Reaction Biology Europe GmbH
Experimental: as §1, §2, §3

FGFR2 = biological target: T4, FGFR2 (Homo sapiens, UniProt P21802); assay: PanQinase kinase panel: FGFR2; conditions: read-out: INHIBITORY EFFECT @ 1 uM: FGFR2
T4 construct: purchased Reaction Biology Europe GmbH
Experimental: Screening procedures were performed in accordance with the company's on-line protocol [accessed on-line Mar. 25, 2022 at reaction biology.com/assay-protocol-panqinase]. Inhibitory activity of 50% or greater at concentrations of 1 μM are highlighted for all five compounds tested.
as §2, §3

TRKA = biological target: T5, TRKA (Homo sapiens, UniProt P04629); assay: PanQinase kinase panel: TRKA
T5 construct: purchased Reaction Biology Europe GmbH
Experimental: as §1, §2, §3

FES = biological target: T6, FES (Homo sapiens, UniProt P07332); assay: PanQinase kinase panel: FES; conditions: read-out: INHIBITORY EFFECT @ 1 uM: FES
T6 construct: purchased Reaction Biology Europe GmbH
Experimental: as §1, §2, §3

INSRR = biological target: T7, INSRR (Homo sapiens, UniProt P14616); assay: PanQinase kinase panel: INSRR; conditions: read-out: INHIBITORY EFFECT @ 1 uM: INSRR
T7 construct: purchased Reaction Biology Europe GmbH
Experimental: as §1, §2, §3

MINK1 = biological target: T8, MINK1 (Homo sapiens, UniProt Q8N4C8); assay: PanQinase kinase panel: MINK1; conditions: read-out: INHIBITORY EFFECT @ 1 uM: MINK1
T8 construct: purchased Reaction Biology Europe GmbH
Experimental: as §1, §2, §3

PDGFRalpha = biological target: T9, PDGFRalpha (Homo sapiens, UniProt P16234); assay: PanQinase kinase panel: PDGFRalpha; conditions: read-out: INHIBITORY EFFECT @ 1 uM: PDGFRalpha
T9 construct: purchased Reaction Biology Europe GmbH
Experimental: as §1, §2, §3

[1] = biological target: T10, BTK (Bruton tyrosine kinase) (Homo sapiens, UniProt Q06187); assay: BTK screening assay (33PanQinase Activity Assay, radiometric); conditions: Inhibition of BTK, radiometric 33PanQinase Activity Assay, 3 μM ATP, 10 concentrations in singlicate, top 10 μM; read-out: 33PanQinase ® Radiometric IC50
T10 construct: GST or His (the text leaves open which); purchased Reaction Biology Europe GmbH Lot 012,11; host or cells: Sf9 insect cells or E. coli (not resolved)

BTK = BTK (Homo sapiens, UniProt Q06187); assay: BTK Kinase Enzyme System with ADP-Glo Kinase Assay; design: Recombinant full-length human BTK was expressed by baculovirus in Sf9 insect cells; His (N); purchased Promega V9071; host or cells: Sf9 insect cells (baculovirus); conditions: 50 μM ATP
Experimental: Inhibition of BTK activity was evaluated using the BTK Kinase Enzyme System in combination with the ADP-Glo™ Kinase Assay Kit (V9071, Promega), according to manufacturer's instructions. Luminescence was detected on a PerkinElmer EnVision Multimode Plate Reader.
Recombinant full-length human BTK was expressed by baculovirus in Sf9 insect cells using an N-terminal His tag, MW ˜78 kDa. Substrate solution contained Poly (4:1 Glu, Tyr) Peptide Substrate. BTK Kinase Buffer consisted of: 40 mM Tris, pH 7.5; 20 mM MgCl2; 0.1 mg/ml BSA; 2 mM MnCl2; 50 μM DTT. ADP-Glo™ Reagents were thawed at ambient temperature; components of BTK Enzyme System, ADP and ATP were thawed on ice. Final assay conditions used 3 ng BTK, 50 μM ATP, and 0.2 mg/mL substrate. Compounds were tested at 11 dose points in duplicates, in 3-fold dilution with top concentration at 10 μM.
Assay performance was evaluated according to the reference compound Staurosporine, which was within 3-5 fold of published results and between different tests, with a Z′ value larger than 0.5, where applicable.

[2] = at 1 μM, read-out: inhibition of TRKA
[3] = read-out: INHIBITORY EFFECT @ 1 uM: TRKA

T9 sequence (P16234 24-1089): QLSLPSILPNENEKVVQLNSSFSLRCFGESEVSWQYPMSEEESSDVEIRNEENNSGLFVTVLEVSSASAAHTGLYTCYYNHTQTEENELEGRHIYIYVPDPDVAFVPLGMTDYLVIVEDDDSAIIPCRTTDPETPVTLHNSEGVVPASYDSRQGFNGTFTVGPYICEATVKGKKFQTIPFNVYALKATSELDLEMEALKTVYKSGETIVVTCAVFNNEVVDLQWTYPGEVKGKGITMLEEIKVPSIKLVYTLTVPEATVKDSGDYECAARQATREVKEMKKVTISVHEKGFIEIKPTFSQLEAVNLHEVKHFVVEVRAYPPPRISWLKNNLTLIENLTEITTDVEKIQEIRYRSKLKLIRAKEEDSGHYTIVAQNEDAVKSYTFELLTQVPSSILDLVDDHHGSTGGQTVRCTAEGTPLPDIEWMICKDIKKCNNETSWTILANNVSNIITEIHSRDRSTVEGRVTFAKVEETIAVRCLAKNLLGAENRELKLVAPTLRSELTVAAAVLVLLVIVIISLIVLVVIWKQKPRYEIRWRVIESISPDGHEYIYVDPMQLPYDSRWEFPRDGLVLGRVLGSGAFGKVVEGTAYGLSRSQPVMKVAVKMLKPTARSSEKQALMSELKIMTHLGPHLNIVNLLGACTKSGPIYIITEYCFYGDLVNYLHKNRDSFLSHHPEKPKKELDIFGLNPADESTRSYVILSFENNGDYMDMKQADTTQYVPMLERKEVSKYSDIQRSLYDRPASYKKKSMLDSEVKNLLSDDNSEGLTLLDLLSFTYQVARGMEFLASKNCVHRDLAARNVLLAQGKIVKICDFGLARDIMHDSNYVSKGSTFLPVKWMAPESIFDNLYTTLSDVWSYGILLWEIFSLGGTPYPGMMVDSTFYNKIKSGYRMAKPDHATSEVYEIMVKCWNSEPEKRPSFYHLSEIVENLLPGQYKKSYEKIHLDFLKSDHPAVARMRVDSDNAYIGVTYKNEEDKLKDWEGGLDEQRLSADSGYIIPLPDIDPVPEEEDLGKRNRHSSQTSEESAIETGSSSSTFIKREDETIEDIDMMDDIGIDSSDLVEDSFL
T6 sequence (P07332 whole entry): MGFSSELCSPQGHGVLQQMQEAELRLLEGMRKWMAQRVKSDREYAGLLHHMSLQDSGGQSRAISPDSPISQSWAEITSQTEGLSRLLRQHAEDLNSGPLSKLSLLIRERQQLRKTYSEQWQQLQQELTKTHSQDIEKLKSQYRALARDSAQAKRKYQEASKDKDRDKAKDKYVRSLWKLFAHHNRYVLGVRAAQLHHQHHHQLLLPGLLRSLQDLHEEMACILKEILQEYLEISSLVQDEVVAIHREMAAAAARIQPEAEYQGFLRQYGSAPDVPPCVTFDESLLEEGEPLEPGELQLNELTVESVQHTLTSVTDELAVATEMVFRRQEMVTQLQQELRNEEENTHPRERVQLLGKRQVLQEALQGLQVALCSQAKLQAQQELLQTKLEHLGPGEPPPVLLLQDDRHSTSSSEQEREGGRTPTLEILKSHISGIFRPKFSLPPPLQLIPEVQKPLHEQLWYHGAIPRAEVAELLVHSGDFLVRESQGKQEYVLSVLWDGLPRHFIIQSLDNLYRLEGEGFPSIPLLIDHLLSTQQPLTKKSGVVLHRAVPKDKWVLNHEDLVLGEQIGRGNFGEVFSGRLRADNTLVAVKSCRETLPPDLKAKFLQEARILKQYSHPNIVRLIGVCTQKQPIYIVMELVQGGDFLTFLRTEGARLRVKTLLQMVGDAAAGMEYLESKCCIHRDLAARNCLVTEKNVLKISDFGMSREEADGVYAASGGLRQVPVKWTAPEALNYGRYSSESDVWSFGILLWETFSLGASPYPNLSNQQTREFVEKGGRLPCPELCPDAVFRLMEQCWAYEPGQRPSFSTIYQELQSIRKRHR
T2 sequence (P42685 whole entry): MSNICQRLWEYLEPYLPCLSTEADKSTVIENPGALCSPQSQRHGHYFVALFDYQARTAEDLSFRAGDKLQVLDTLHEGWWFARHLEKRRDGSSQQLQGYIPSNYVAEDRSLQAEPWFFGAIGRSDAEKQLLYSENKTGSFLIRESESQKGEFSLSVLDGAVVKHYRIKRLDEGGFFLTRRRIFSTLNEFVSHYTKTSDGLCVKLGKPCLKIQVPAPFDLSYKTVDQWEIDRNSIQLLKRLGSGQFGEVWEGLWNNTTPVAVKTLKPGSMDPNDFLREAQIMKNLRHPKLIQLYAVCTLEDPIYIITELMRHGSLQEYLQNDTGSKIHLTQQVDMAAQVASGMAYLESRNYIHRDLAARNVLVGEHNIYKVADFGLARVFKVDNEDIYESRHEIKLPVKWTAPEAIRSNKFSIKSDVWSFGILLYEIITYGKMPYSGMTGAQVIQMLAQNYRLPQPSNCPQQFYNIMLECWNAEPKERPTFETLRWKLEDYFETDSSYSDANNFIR
T3 sequence (P07949 29-1114): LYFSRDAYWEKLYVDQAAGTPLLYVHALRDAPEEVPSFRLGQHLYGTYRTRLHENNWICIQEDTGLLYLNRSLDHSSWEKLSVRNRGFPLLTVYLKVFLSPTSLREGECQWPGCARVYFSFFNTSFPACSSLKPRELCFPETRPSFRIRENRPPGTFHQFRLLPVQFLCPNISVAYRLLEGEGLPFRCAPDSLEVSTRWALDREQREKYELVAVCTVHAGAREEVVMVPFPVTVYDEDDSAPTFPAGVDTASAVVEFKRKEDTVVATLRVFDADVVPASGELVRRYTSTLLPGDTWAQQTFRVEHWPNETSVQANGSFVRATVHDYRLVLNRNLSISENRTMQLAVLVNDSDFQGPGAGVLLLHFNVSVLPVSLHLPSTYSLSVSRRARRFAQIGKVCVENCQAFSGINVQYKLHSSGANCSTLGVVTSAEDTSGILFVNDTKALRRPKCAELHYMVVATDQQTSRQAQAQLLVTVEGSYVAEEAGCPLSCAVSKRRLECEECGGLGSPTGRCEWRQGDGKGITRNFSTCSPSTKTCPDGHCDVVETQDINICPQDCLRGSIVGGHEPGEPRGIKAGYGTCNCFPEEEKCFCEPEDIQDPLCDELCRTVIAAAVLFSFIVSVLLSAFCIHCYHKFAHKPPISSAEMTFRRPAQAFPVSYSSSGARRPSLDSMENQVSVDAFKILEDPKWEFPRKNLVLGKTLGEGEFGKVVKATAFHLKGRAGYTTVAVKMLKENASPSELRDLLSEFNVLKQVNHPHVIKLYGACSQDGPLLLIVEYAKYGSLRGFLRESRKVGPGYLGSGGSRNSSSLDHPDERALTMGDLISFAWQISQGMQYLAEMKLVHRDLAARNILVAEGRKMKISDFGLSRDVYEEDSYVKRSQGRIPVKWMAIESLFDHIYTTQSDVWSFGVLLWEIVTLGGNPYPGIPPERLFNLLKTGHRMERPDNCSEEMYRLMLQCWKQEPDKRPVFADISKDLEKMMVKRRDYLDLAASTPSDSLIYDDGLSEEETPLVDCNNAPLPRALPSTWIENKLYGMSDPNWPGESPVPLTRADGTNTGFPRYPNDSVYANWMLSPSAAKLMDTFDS
T7 sequence (P14616 27-1297): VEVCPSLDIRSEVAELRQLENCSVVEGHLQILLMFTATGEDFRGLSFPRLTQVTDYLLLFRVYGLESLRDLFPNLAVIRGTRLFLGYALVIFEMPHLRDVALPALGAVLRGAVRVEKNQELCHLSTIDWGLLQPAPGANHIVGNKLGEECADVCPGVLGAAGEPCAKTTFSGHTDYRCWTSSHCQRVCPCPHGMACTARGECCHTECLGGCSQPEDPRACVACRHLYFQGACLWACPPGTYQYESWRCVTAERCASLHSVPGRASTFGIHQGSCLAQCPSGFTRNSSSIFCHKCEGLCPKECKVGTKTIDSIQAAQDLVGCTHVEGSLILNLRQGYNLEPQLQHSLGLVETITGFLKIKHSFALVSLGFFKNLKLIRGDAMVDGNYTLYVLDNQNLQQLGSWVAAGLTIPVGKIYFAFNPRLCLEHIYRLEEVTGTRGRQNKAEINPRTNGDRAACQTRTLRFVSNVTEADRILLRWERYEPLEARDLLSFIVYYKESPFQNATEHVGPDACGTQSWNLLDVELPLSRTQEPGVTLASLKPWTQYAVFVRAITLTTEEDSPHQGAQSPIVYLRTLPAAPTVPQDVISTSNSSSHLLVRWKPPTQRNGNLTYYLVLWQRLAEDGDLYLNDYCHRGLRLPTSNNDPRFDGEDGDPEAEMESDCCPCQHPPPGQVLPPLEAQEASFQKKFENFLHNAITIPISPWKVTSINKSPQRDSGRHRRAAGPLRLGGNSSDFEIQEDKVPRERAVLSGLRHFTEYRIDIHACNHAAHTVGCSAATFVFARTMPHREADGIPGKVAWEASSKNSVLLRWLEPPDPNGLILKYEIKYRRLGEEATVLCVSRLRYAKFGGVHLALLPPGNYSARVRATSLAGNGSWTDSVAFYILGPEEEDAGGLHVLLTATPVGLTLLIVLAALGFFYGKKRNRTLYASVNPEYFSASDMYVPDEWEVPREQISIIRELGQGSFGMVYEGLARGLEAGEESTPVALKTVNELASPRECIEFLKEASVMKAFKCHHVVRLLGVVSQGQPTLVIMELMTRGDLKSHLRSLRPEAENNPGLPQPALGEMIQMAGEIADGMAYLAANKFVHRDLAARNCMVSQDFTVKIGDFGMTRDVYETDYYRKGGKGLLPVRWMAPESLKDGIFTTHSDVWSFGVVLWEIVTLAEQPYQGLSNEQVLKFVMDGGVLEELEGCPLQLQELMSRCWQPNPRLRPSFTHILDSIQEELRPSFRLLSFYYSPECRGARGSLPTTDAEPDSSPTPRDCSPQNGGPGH

IC50 [1]	IC50 (BTK)	Compound	inhibition at 1 µM (ERBB4)	inhibition at 1 µM (FRK)	inhibition at 1 µM (RET)	inhibition at 1 µM (FGFR2)	inhibition at 1 µM (TRKA; [2])	inhibition at 1 µM (TRKA; [3])	inhibition at 1 µM (FES)	inhibition at 1 µM (INSRR)	inhibition at 1 µM (MINK1)	inhibition at 1 µM (PDGFRalpha)
		O=C(c1ccc(Oc2ccccc2)cc1Cl)c1c[nH]c2ncnc(N[C@@H]3CC[C@@H](CO)OC3)c12 [ARQ-531, (2-chloro-4-phenoxyphenyl) (4-(((3R,6S)-6-(hydroxymethyl)tetrahydro-2H-pyran-3-yl)amino)-7H-pyrrolo[2,3-d]pyrimidin-5-yl) methanone]	90 to 100%	70 to 89%	90 to 100%	90 to 100%	≥ 50%	90 to 100%	50 to 69%	90 to 100%	50 to 69%	70 to 89%
1 to 100 nM	1 to 100 nM	Cc1cc(-c2ccnc(Nc3cnn(CCN4[C@@H](c5ncccc5C)CCC[C@H]4c4ncccc4C)c3)n2)ccc1CNC(=O)N1CC(OC(C)C)C1 [Compound I-11]										
1 to 100 nM	1 to 100 nM	Cc1cccnc1[C@H]1CCC[C@@H](c2ncccc2C)N1CCCCNC(=O)[C@@H]1CC[C@@H](Nc2ncnc3[nH]cc(C(=O)c4ccc(Oc5ccccc5)cc4Cl)c23)CO1 [Compound I-16]										
1 to 100 nM	1 to 100 nM	Cc1cccnc1[C@H]1CCC[C@@H](c2ncccc2C)N1CCCCNC(=O)OC[C@@H]1CC[C@@H](Nc2ncnc3[nH]cc(C(=O)c4ccc(Oc5ccccc5)cc4Cl)c23)CO1 [Compound I-18]										
		COc1ccc(F)cc1C(=O)NCc1ccc(-c2nn([C@@H](C)C(F)(F)F)c(N)c2C(N)=O)cc1 [LOXO-305, pirtobrutinib]	50 to 69%	< 50%	50 to 69%	< 50%		< 50%	< 50%	< 50%	< 50%	< 50%
		C=CC(=O)N1CCC([C@@H]2CCNc3c(C(N)=O)c(-c4ccc(Oc5ccccc5)cc4)nn32)CC1 [Zanubrutinib, (7S)-2-(4-phenoxyphenyl)-7-(1-prop-2-enoylpiperidin-4-yl)-4,5,6,7-tetrahydropyrazolo[1,5-a]pyrimidine-3-carboxamide]		50 to 69%	< 50%	< 50%		< 50%	< 50%	< 50%	< 50%	< 50%

Compound	IC50 [1]	IC50 (BTK)	inhibition at 1 µM (ERBB4)	inhibition at 1 µM (FRK)	inhibition at 1 µM (RET)	inhibition at 1 µM (FGFR2)	inhibition at 1 µM (TRKA; [2])	inhibition at 1 µM (TRKA; [3])	inhibition at 1 µM (FES)	inhibition at 1 µM (INSRR)	inhibition at 1 µM (MINK1)	inhibition at 1 µM (PDGFRalpha)
Cc1cccnc1[C@H]1CCC[C@@H](c2ncccc2C)N1CCN1CCN(C(=O)c2ccc(-c3cc4c(-c5cccc(NC(=O)c6ccccc6)c5C)ncnc4[nH]3)cc2)CC1 [Compound I-10, N-(3-(6-(4-(4-(2-((2R,6S)-2,6-bis(3-methylpyridin-2-yl)piperidin-1-yl)ethyl)piperazine-1-carbonyl)phenyl)-7H-pyrrolo[2,3-d]pyrimidin-4-yl)-2-methylphenyl)benzamide]	1 to 100 nM	1 to 100 nM	< 50%	< 50%	< 50%	< 50%	50 to 89%	70 to 89%	< 50%	< 50%	< 50%	< 50%
